Reference: PMC6773697, “Antileukemic activity of novel adenosine derivatives” (Scientific Reports, 2019)

Key:
Format in all cases: cell-based, human
[1] = system: caspase-3/7 in THP-1 cells; test: Caspase 3/7 assay, THP-1; conditions: THP-1, 48 h
Experimental: The activities of caspases-3 and −7 were estimated with CellEvent™ Caspse-3/7 Green Detection Reagent (Thermo Fisher Scientific) according to the manufacturer’s protocol. The cells were seeded on 96-well plates (15 × 10^3/ well) and 24 h later, incubated with the appropriate drugs for 24 h or 48 h. The cells were fixed by adding a final concentration of 4% paraformaldehyde solution (10 min, room temperature). Cells were labeled with CellEvent™Caspase-3/7 Green Detection Reagent (5 µM), followed by Hoechst 33342 (5 µg/ml) for 15 minutes in complete medium3. Caspase-3/7 Green Detection Reagent was diluted into PBS with 5% FBS to avoid fluorescence background. […] Fluorescence intensity was measured using a Fluoroskan Ascent FL plate reader (Labsystem, Sweden). Cysteine protease activity was expressed as a ratio of fluorescence of the drug-treated samples to the corresponding untreated controls (taken as 100%). In some experimental variants, cells were preincubated for 1 h with VE-821 (10 µM) or Z-FA-FMK (caspas-3 inhibitor, 0.5 µM) to confirm that the fluorescence observed in both control and drug-treated cells was due to the presence of caspase-3/7 in samples. […]

[2] = system: MOLT-4 cells; test: Cell cycle analysis by flow cytometry, MOLT-4; conditions: 80 nM, +VE-821 = 1 h preincubation
Experimental: Cellular DNA content was quantified by flow cytometry. Cells were treated with drugs for 2, 24, and 48 h. For experiments with inhibitors, cells were subjected to 1 h preincubation with VE-821. CLA, CLA-FMOR, CLA-FPIP, or CLA-FPIR was added, and incubation continued for the indicated times under the same conditions. After incubation was completed, cells were collected, washed twice with PBS, and fixed in 70% ethanol. After ethanol fixation (at least 24 h at 4 °C), cells were washed in PBS and centrifuged at 7,000 × g for 10 min at 4 °C. Pelleted cells were stained by adding 300 µL PBS containing PI and RNase at final concentrations of 75 µM and 20 µg/mL, respectively. This was followed by 1 h incubation in total darkness at 37 °C. Stained cells were analyzed using a flow cytometer (Becton Dickinson, San Jose, CA, USA). The cell populations at specific phases of the cell cycle were quantified from a standard count of 10,000 cells using FlowJo cytology software (Ashland, OR, USA)[39],[40].

[3] = system: γH2AX in HL-60 cells; test: H2AX (phospho S139) In-Cell ELISA, HL-60; conditions: HL-60, 48 h, versus control cells
Experimental: The level H2AX protein phosphorylated Ser139 was measured in tested leukemia cells by using of In-Cell ELISA, ICE assay kit. The cells were seeded on 96-well plates (100 × 10^3/well) and 48 h later, incubated with the appropriate compounds. In some experimental variants, cells were preincubated for 1 h with VE-821 (10 µM). The cells were fixed by adding a final concentration of 4% paraformaldehyde solution (10 min, room temperature). After 2 h of Block Solution incubation, cells were treated with a highly specific antibody. A rabbit monoclonal antibody specific to H2AX (phospho S139) was used (at 1:100, 2 h incubation). Next Secondary Antibody Solution (at 1:1000) were added to the cells. The measurements were obtained on a fluorescence plate reader at an excitation wavelength of 680 nm and emission at 694 nm. The cells were PBS washed and 100 µL of Janus Green Stain was added to each well of the plate (5 min., room temperature). The data were collected at excitation wavelength of 750 nm and emission at 800 nm channel (Fluoroskan Cary Eclipse). Antibody signal intensity was normalized to the total amount using Janus Green cell-stain.

[4] = system: dCK in MOLT-4 cells; test: Deoxycytidine kinase activity, MOLT-4; conditions: MOLT-4, 24 h incubation
Experimental: Deoxycytidine kinase activity was measured in accordance with the manufacturer’s protocol. The cells, at final concentration were plated at 1 × 10^6 cells per 24-well plates and cultured with the tested compounds for 24 h. Some cells were preincubated with an ATR kinase inhibitor (VE-821) for 1 h at 37 °C before adding the tested compounds. After drug treatment, the cells were washed with PBS and resuspended in an ice-cold cytosol extraction buffer containing 1 mM phenylmethylsulfonyl fluoride (PMSF) and a protease inhibitor cocktail. The cell lysate was centrifuged at 10,000 × g for 30 min at 4 °C. The protein concentration was determined using the Bradford method. The supernatant (cytosolic fraction) was collected and stored at −80 °C. The clarified cytoplasm extracts, dCK standards, and blank control were added to the appropriate microtiter plate wells with a biotin-conjugated polyclonal antibody prepared specifically for dCK. Avidin conjugated to horseradish peroxidase (HRP) was added to each microplate well and incubated. Then, a TMB substrate solution was added to the plate. […] The enzyme-substrate reaction was terminated by addition of a sulfuric acid solution. The color change was measured spectrophotometrically at a wavelength of 450 nm using a microplate reader (BioTek).

| SMILES | caspase-3/7 level [1] | MOLT-4 (48h) S, percentage share of cell cycle phase [2] [%] | increase in γH2AX level [3] | dCK activity [4] |
| --- | --- | --- | --- | --- |
| OC[C@H]1O[C@@H](n2cnc3c(N=CN4CCCC4)nc(Cl)nc32)C[C@@H]1O [CLA-FPIR, [6-deamino-6-(N′, N′-l′, 4′-tetramethyleneformamidino)] cladribine] | highest changes | – | – | – |
| OC[C@H]1O[C@@H](n2cnc3c(N=CN4CCOCC4)nc(Cl)nc32)C[C@@H]1O [CLA-FMOR, [6-deamino-6-(N′, N′-3′-oxa-1′, 5′-pentamethyleneformamidine)] cladribine] | – | 46 | ~ 2.4 fold | highest dCK activity |
